Data reported in patent publication US8309734B2 (Hoffmann-La Roche Inc., priority 2008, dated 2012).
pEC50: −log10 of the molar value.

What follows are molecules tested against T1, human GPBAR1 receptor (Homo sapiens, UniProt Q8TDU6) (assay: functional cAMP assay in CHO-dhfr(minus) cells expressing human GPBAR1 receptors). Conditions: cAMP increase (TR-FRET) in CHO-dhfr(minus) cells expressing human GPBAR1; compounds incubated 30 min at 30° C.
T1 construct: expressed in transfected cells
T1 sequence (Q8TDU6 1-330): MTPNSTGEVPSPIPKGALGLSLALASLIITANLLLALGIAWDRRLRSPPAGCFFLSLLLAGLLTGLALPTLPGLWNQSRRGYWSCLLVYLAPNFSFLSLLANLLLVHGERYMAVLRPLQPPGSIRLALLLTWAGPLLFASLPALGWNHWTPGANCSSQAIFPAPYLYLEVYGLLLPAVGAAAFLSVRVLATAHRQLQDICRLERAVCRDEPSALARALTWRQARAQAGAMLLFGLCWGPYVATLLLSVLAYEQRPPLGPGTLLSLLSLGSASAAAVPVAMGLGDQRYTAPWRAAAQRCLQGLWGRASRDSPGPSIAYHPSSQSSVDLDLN
Format: cell-based
Procedure: The final clone was verified by DNA sequence analysis. The plasmid was transfected into CHO cells deficient in dihydrofolate reductase activity (CHO-dhfr-) using Lipofectamine plus (Invitrogen). Clones were isolated in limited dilution conditions and identified by activities in the cAMP assay using lithocholic acid as agonist.
The growth medium was exchanged with Krebs Ringer Bicarbonate buffer with 1 mM IBMX and incubated at 30° C. for 30 mM. Compounds were added to a final assay volume of 100 μl and incubated for 30 min at 30° C. […] The time-resolved energy transfer is measured by a TRF reader (Evotec Technologies GmbH, Hamburg Germany), equipped with a ND:YAG laser as excitation source. The plate is measured twice with the excitation at 355 nm and at the emission with a delay of 100 ns and a gate of 100 ns, total exposure time 10s at 730 (bandwith 30 nm) or 645 nm (bandwith 75 nm), respectively.
EC50 values were determined using Activity Base analysis (ID Business Solution, Limited). […] Specificity for GPBAR1 was tested in non-transfected CHO cells in the same assay as above.

First: O=C(c1cccnc1Oc1cc(Cl)ccc1Cl)N1CCC(N2CC(F)(F)C2)c2ccccc21 (stereo not shown) [Example 130, [2-(2,5-Dichloro-phenoxy)-pyridin-3-yl]-[4-(3,3-difluoro-azetidin-1-yl)-3,4-dihydro-2H-quinolin-1-yl]-methanone]
Second: CCOC(=O)CN1CCN(C(=O)c2cccnc2Oc2cc(Cl)ccc2Cl)c2ccccc21 [Example 141, {4-[2-(2,5-Dichloro-phenoxy)-pyridine-3-carbonyl]-3,4-dihydro-2H-quinoxalin-1-yl}-acetic acid ethyl ester]
The pEC50 of the first is 0.75 log units lower: 5.74 for the first, 6.49 for the second.

Going from `O=C(c1ccncc1Oc1ccc(F)c(Cl)c1)N1CCCc2cc(F)cc(F)c21` [Example 105, [3-(3-Chloro-4-fluoro-phenoxy)-pyridin-4-yl]-(6,8-difluoro-3,4-dihydro-2H-quinolin-1-yl)-methanone] to `Cc1ccc2c(c1)CCCN2C(=O)c1cccnc1Oc1ccc(F)c(Cl)c1` [Example 77, [2-(3-Chloro-4-fluoro-phenoxy)-pyridin-3-yl]-(6-methyl-3,4-dihydro-2H-quinolin-1-yl)-methanone], the pEC50 falls from 6.86 to 6.12 (0.74 log units). The first is the more potent here.

Compared with `CCN(C(=O)c1cc(F)cnc1Oc1cc(Cl)ccc1Cl)c1ccccc1` [Example 84, 2-(2,5-Dichloro-phenoxy)-N-ethyl-5-fluoro-N-phenyl-nicotinamide], `CN(C(=O)c1cccnc1Oc1cc(Cl)ccc1Cl)c1ccccc1F` [Example 63, 2-(2,5-Dichloro-phenoxy)-N-(2-fluoro-phenyl)-N-methyl-nicotinamide] is 0.61 log units higher in pEC50: 6.16 for the first, 6.77 for the second.

`O=C(c1cc(F)cnc1Oc1cc(Cl)ccc1Cl)N1CCN(Cc2ccoc2)c2ccccc21` [Example 151, [2-(2,5-Dichloro-phenoxy)-5-fluoro-pyridin-3-yl]-(4-furan-3-ylmethyl-3,4-dihydro-2H-quinoxalin-1-yl)-methanone] and `CC(CN1CCN(C(=O)c2cc(F)cnc2Oc2cc(Cl)ccc2Cl)c2ccccc21)C(=O)O` (stereo not shown) [Example 157, 3-{4-[2-(2,5-Dichloro-phenoxy)-5-fluoro-pyridine-3-carbonyl]-3,4-dihydro-2H-quinoxalin-1-yl}-2-methyl-propionic acid] are within 0.2 log units of each other in pEC50: 5.97 for the first, 5.78 for the second.

Going from `O=C(c1ccccc1Oc1cc(Cl)ccc1Cl)N1CCCc2ccccc21` [Example 110, [2-(2,5-Dichloro-phenoxy)-phenyl]-(3,4-dihydro-2H-quinolin-1-yl)-methanone] to `O=C(c1cc(F)cnc1Oc1cc(Cl)ccc1Cl)N1CCCc2ccccc21` [Example 83, [2-(2,5-Dichloro-phenoxy)-5-fluoro-pyridin-3-yl]-(3,4-dihydro-2H-quinolin-1-yl)-methanone], the pEC50 rises from 7.54 to 7.89 (0.35 log units).

First: COc1cccc(C)c1N(C)C(=O)c1cccnc1Oc1cc(Cl)ccc1Cl [Example 53, 2-(2,5-Dichloro-phenoxy)-N-(2-methoxy-6-methyl-phenyl)-N-methyl-nicotinamide]
Second: Cc1cc(Cl)ncc1N(C)C(=O)c1cccnc1Oc1cc(Cl)ccc1Cl [Example 61, N-(6-Chloro-4-methyl-pyridin-3-yl)-2-(2,5-dichloro-phenoxy)-N-methyl-nicotinamide]
The pEC50 of the first is 0.79 log units higher: 6.49 for the first, 5.70 for the second. The first is the more potent here.

First: CN(C(=O)c1cccnc1Oc1cc(Cl)ccc1Cl)c1ccccc1-c1ccccc1 [Example 43, N-Biphenyl-2-yl-2-(2,5-dichloro-phenoxy)-N-methyl-nicotinamide]
Second: O=C(c1cccnc1Oc1cc(C(F)(F)F)ccc1F)N1CCCc2ccccc21 [Example 144, (3,4-Dihydro-2H-quinolin-1-yl)-[2-(2-fluoro-5-trifluoromethyl-phenoxy)-pyridin-3-yl]-methanone]
The pEC50 of the first is 0.24 log units lower: 6.30 for the first, 6.54 for the second.

Going from `Cc1ccc2c(c1)CCCN2C(=O)c1cc(F)ccc1Oc1cc(Cl)ccc1Cl` [Example 116, [2-(2,5-Dichloro-phenoxy)-5-fluoro-phenyl]-(6-methyl-3,4-dihydro-2H-quinolin-1-yl)-methanone] to `O=C(c1cccnc1Oc1cccc(F)c1)N1CCCc2ccccc21` [Example 18, (3,4-Dihydro-2H-quinolin-1-yl)-[2-(3-fluoro-phenoxy)-pyridin-3-yl]-methanone], the pEC50 rises from 5.94 to 6.49 (0.55 log units). The second is the more potent here.
